Test results taken from EP3138565A1, “METHOD FOR TREATING A TUMOUR DISEASE AND METHOD FOR SELECTIVELY INHIBITING TUMOUR CELL GROWTH USING A QUINOXALINE-1,4-DIOXIDE DERIVATIVE” (OOO "A-Laboratory", priority 2014, dated 2015).

Assays:
MSF7 = assay: MTT test, antiproliferative activity; format: cell-based; conditions: MSF7 human solid tumor cells
Procedure: (§1) Comparative study of cytotoxicity of 6,7-difluoro-3-phenyl-2-cyanoquinoxaline 1,4-dioxide (compound 7 obtained according to a method described in the Example 1) and the previously known 6,7-nonsubstituted analogue 6 (obtained earlier by a method described by [Hu Y. etal. Molecules 2012, 17, 9683]) was performed in in vitro tests on cells of human solid tumors, as well as normal human embryo lung fibroblasts (HELF) to control selectivity. IC50 values were determined by the MTT test according to a protocol described in the literature [Mossman T.J. Immunol. Methods, 1983, 65, 55]. Table 1. Antiproliferative activity (IC50, µM) of quinoxaline 1,4-dioxides 6 and 7 with respect to human solid tumor cells and non-tumor human embryo lung fibroblasts (HELF)

K562 leukemic cells = assay: Antiproliferative activity on leukemia cells; format: cell-based; conditions: Homo sapiens
Procedure: (§2) Comparative study of cytotoxicity of 6,7-difluoro-3-phenyl-2-cyanoquinoxaline 1,4-dioxide (compound of formula 7), which is the subject if the present invention, was performed also on a culture of tumor […] leukemia K562 cells and its resistant subline K562/4 expressing p-glycoprotein. Expression of such ATP-dependent transporters on cell surface is one of the most common mechanisms of the multidrug resistance development in tumors [Shtil A.A., Grinchuk T.M., et. al. Int. J. Oncol., 2000, 17, 387]. Data of these studies, including the IC50 values of reference compounds, the previously described quinoxaline 1,4-dioxide of formula 6, and doxorubicin, as well as the resistance index value (RI is the ratio between the IC50 values of the K562/4 subline and IC50 of the K562 line) are presented in Table 2.

K562/4 = assay: Antiproliferative activity on multidrug-resistant subline expressing p-glycoprotein; format: cell-based; conditions: for IC50: Homo sapiens, K562/4 subline with multidrug resistance caused by p-gp expression; for RI, resistance index: RI = IC50(K562/4)/IC50(K562)
Procedure: as §2

[1] = test system: normal human embryo lung fibroblasts (HELF); assay: MTT test, cytotoxicity on non-tumor cells (selectivity control); format: cell-based; conditions: HELF; non-tumor human embryo lung fibroblasts, MTT test; read-out: IC50, µM HEFL
Procedure: as §1

HCT116 = assay: MTT test, antiproliferative activity; format: cell-based, human; conditions: for IC50: HCT-116, HCT116 human solid tumor cells, MTT test
Procedure: as §1

[2] = MTT test, cytotoxicity on non-tumor cells (selectivity control); format: cell-based; conditions: tumor cells of different genesis vs non-tumor human fibroblasts; read-out: cytotoxicity with respect to tumor cells higher than against the non-tumor human fibroblast cells (selectivity)
Procedure: as §1

[3] = test system: human tumor cells of various genesis; assay: Apoptosis induction in tumor cells under normoxia; format: cell-based; conditions: submicromolar concentrations, all studied types of human tumor cells
animal tumor models = assay: Antitumor effect on animal tumor models; format: in vivo; conditions: no data given

Compound | IC50 (MSF7) | IC50 (K562 leukemic cells) | IC50 (K562/4) | RI, resistance index (K562/4) | IC50 [1] | IC50 (HCT116) | activity toward K562/4 cells surpassing analogue of formula 6 (K562/4; K562/4, versus closest analogue of formula 6) | activity toward K562/4 cells surpassing doxorubicin (K562/4; K562/4, versus reference preparation doxorubicin) | resistance index (RI) lower than doxorubicin (K562/4; RI of compound versus RI of doxorubicin) | selectivity ratio [2] | apoptosis induction [3] | growth-inhibiting concentrations relative to the closest analogue of formula 6 (HCT116; all tested tumor cell lines) | antitumor effect (animal tumor models)
N#Cc1c(-c2ccccc2)[n+]([O-])c2ccccc2[n+]1[O-] [Compound 6, reference compound] | 15.5 ± 0.98 µM | 5.2 ± 0.78 µM | 33 ± 4 µM | 6.3 | 25.2 ± 5.1 µM | 8.4 ± 0.8 µM |  |  |  |  |  |  | 
COc1cccc2c1C(=O)c1c(O)c3c(c(O)c1C2=O)C[C@@](O)(C(=O)CO)C[C@@H]3O[C@H]1C[C@H](N)[C@H](O)[C@H](C)O1 [Doxorubicin, reference compound] |  | 0.18 ± 0.03 µM | 18.4 ± 2.2 µM | 102.2 |  |  |  |  |  |  |  |  | 
N#Cc1c(-c2ccccc2)[n+]([O-])c2cc(F)c(F)cc2[n+]1[O-] [Compound 7, 6,7-difluoro-3-phenyl-2-cyanoquinoxaline 1,4-dioxide] | 0.1 ± 0.02 µM | 0.15 ± 0.02 µM | 0.3 ± 0.05 µM | 2.0 | 44 ± 1.9 µM | 0.6 ± 0.03 µM | 100 fold | ~50 fold | ~50 fold | 200 to 300 | induced apoptosis | two orders of magnitude lower | reliable antitumor effect
